Data: patent US20050288309A1, “Fungicidal mixtures” (priority 2002, published 2005)

Tested on: Plasmopara viticola
Assay: Activity against Peronospora of grapevines caused by Plasmopara viticola (protective spray test on potted vines)
Assay type: in vivo, cultivar Müller-Thurgau
Details: individual active compound, untreated control 70% infection
Method: The active compounds, separately or jointly, were prepared as a 10% emulsion in a mixture of 63% by weight of cyclohexanone and 27% by weight of emulsifier and diluted with water to the desired concentration.
Evaluation was carried out by determining the infected leaf areas in percent. These percentages were converted into efficacies. The efficacy (E) is calculated as follows using Abbot's formula: E=(1α/β)·100 • α corresponds to the fungicidal infection of the treated plants in % and • β corresponds to the fungicidal infection of the untreated (control) plants in %
An efficacy of 0 means that the infection level of the treated plants corresponds to that of the untreated control plants; an efficacy of 100 means that the treated plants were not infected.
The expected efficacies of the mixtures of active compounds are determined using Colby's formula [R. S. Colby, Weeds 15, 20-22 (1967)] and compared with the observed efficacies.
Colby's formula: E=x+y−x·y/100 • E expected efficacy, expressed in % of the untreated control, when using the mixture of the active compounds A and B at the concentrations a and b • x efficacy, expressed in % of the untreated control, when using active compound A at the concentration a • y efficacy, expressed in % of the untreated control, when using active compound B at the concentration b
Leaves of potted vines of the cultivar “Müller-Thurgau” were sprayed to runoff point with an aqueous suspension having the concentration of active compound stated below. The suspension or emulsion was prepared from a stock solution comprising 10% of active compound in a mixture consisting of 70% of cyclohexanone, 20% of wetting agent and 10% of emulsifier. The next day, the undersides of the leaves were inoculated with an aqueous zoospore suspension of Plasmopara viticola. The grapevines were then initially placed in a water-vapor-saturated chamber at 24° C. for 48 hours and then in a greenhouse at 20-30° C. for 5 days. After this period of time, the plants were again placed in a humid chamber for 16 hours to promote sporangiophore eruption. The extent of the development of the disease on the undersides of the leaves was then determined visually.

SMILES | Efficacy in % of the untreated control (0.25 ppm in the spray liquor) [%] | Efficacy in % of the untreated control (1 ppm in the spray liquor) [%] | Efficacy in % of the untreated control (4 ppm in the spray liquor) [%]
CC1CCN(c2c(-c3c(F)cc(F)cc3F)c(Cl)nc3ncnn23)CC1 [I, 5-chloro-7-(4-methylpiperidin-1-yl)-6-(2,4,6-trifluorophenyl)-[1,2,4]triazolo[1,5-a]-pyrimidine] | 0 | 0 | 29
COC(=O)N(OC)c1ccccc1COc1ccn(-c2ccc(Cl)cc2)n1 [II-6, pyraclostrobin, reference compound] | – | 29 | –
